From patent publication US20250145715A1, “B7-H3 TARGETING FUSION PROTEINS AND METHODS OF USE THEREOF” (GT Biopharma, Inc., priority 2021, published 2025) come the findings set out here.

Test [1] concerns NCI-H460 large cell lung cancer cells. Briefly: NK cell CD107a / IFNγ flow cytometry against NCI-H460. The test is classed as cell-based, human. The settings on record: normal donor and lung cancer patient samples, vs controls. An excerpt:
FIGS. 24A-24F illustrate that B7-H3 TriKE enhances NK cell function against lung tumor targets. FIG. 24A is a graph showing pooled analysis of proportion of NK cells from healthy donors expressing CD107a+ against A549(N=6) tumor targets. FIG. 24B is a graph showing pooled analysis of proportion of NK cells from healthy donors expressing IFNγ against A549(N=6) tumor targets. FIG. 24C is a graph showing pooled analysis of proportion of NK cells from healthy donors expressing CD107a+ against NCI-H322 (N=5) tumor targets. FIG. 24D is a graph showing pooled analysis of proportion of NK cells from healthy donors expressing IFNγ against NCI-H322 (N=5) tumor targets. FIG. 24E is a graph showing pooled proportion of NK cells from healthy donors (black bars) or lung cancer patients (white bars) expressing CD107a+ against NCI-H460 (N=7). FIG. 24F is a graph showing pooled proportion of NK cells from healthy donors (black bars) or lung cancer patients (white bars) expressing IFNγ against NCI-H460 (N=7). ** p<0.01, *** p<0.001, and **** p<0.0001.
ADCC was measured in a flow cytometry assay by evaluating degranulation via CD107a (lysosomal-associated membrane protein LAMP-1) and intracellular IFNγ production. […] Samples were washed and evaluated in an LSRII flow cytometer (BD Biosciences, San Jose, CA, USA). […]
Background: A flow cytometer gives signals particle by particle.

The test system of test [2] is OVCAR8 ovarian cancer cells. Nature of the test: NK cell CD107a / IFNγ flow cytometry against OVCAR8. The test is classed as cell-based, human. The settings on record: 30 nM, E:T 2:1, 4 hrs; vs no treatment and rhIL-15 alone. As to the method: FIG. 29A is a graph illustrating pooled proportion of NK cells from healthy donors expressing CD107a+ (degranulation) against OVCAR8 and MA148 targets. FIG. 29B is a graph illustrating pooled proportion of NK cells from healthy donors expressing IFNγ cytokine production against OVCAR8 and MA148 targets.
Healthy donor or ovarian cancer PBMC cells were incubated with ovarian tumor targets at 2:1 E:T ratio for 4 hrs with 30 nM TriKE or control condition. FIG. 30A is a graph illustrating pooled proportion of NK cells from healthy donors expressing CD107a+ (degranulation) against OVCAR8 targets (N=8). FIG. 30B is a graph illustrating pooled proportion of NK cells from healthy donors expressing IFNγ cytokine production against OVCAR8 targets (N=8). FIG. 30C is a graph illustrating pooled proportion of NK cells from healthy donors expressing CD107a+ (degranulation) against OVCAR3 targets (N=4). FIG. 30D is a graph illustrating pooled proportion of NK cells from healthy donors expressing IFNγ cytokine production against OVCAR3 targets (N=4). FIG. 30E is a graph illustrating pooled proportion of NK cells from healthy donors expressing CD107a+ (degranulation) against OVCAR5 targets (N=7). FIG. 30F is a graph illustrating pooled proportion of NK cells from healthy donors expressing IFNγ cytokine production against OVCAR5 targets (N=7). […] FIG. 30I is a graph illustrating that tumor killing was evaluated using IncuCyte imaging assay. […] The percentage of Live (Nuclight Red+Caspase 3/7−) tumor cells was quantified over a 48-h period and normalized to tumor alone. Readings were obtained every 15 min (representative of four separate experiments). * p<0.05, ** p<0.01, *** p<0.001, and **** p<0.0001.
ADCC was measured in a flow cytometry assay by evaluating degranulation via CD107a (lysosomal-associated membrane protein LAMP-1) and intracellular IFNγ production. […] Samples were washed and evaluated in an LSRII flow cytometer (BD Biosciences, San Jose, CA, USA).
The ability of cam1615B7-H3 TriKE to mediate NK cell activity against ovarian cancer cells was evaluated. […]

For the substance “cam1615B7-H3: second-generation TriKE: humanized camelid anti-CD16 VHH, human wild-type IL-15, anti-B7-H3 mAb 376.96 scFv; SEQ ID NO:1”, the “NK cell function against NCI-H460” value in test [1] is given as “strongly increased NK cell function”. In addition, in test [2], the “NK cell degranulation against OVCAR8” value was “robust” and the “NK cell intracellular IFNγ production against OVCAR8” value is given as “robust”.
